Values quoted from earlier work in patent US7001904B1, “Guanidine derivatives quinazoline and quinoline for use in the treatment of autoimmune diseases” (AstraZeneca AB, priority 2000, dated 2006).

Target: EGF RTK (Homo sapiens, UniProt P00533)
Details: Bioorganic & Medicinal Chemistry Letters, 1997, 7, 2723–2728

EGF RTK, sequence (P00533 25-1210): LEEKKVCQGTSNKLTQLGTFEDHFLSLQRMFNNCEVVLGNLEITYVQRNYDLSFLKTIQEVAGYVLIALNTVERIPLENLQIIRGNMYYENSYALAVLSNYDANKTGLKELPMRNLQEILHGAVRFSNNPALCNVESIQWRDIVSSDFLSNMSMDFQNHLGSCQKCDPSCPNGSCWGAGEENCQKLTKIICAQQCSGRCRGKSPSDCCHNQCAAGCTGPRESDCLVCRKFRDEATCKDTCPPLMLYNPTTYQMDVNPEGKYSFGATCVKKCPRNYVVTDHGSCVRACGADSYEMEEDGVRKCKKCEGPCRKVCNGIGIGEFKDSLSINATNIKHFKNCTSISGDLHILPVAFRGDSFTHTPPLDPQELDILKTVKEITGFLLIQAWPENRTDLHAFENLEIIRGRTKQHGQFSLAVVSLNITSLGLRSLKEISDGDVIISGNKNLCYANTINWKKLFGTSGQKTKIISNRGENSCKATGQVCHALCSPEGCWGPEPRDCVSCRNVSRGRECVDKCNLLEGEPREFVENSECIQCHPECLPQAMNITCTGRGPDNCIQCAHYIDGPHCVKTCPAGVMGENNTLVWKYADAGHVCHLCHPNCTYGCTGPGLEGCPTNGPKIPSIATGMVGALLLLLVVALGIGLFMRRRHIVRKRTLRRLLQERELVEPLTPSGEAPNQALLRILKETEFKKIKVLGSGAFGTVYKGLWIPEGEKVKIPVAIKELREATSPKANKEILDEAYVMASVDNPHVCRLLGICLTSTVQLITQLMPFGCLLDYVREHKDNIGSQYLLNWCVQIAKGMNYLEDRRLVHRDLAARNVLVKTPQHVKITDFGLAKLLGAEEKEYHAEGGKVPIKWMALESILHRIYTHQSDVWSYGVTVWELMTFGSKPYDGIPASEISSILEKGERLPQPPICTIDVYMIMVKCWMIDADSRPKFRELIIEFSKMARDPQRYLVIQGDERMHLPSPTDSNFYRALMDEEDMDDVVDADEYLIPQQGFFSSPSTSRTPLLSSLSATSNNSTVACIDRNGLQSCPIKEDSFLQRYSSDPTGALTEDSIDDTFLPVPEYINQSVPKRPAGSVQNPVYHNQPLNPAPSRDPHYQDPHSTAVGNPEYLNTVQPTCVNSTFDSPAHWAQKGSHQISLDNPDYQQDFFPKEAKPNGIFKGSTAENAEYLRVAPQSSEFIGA

EGF RTK inhibition: inactive
SMILES: COc1cc2ncnc(NC(=O)Nc3ccccc3)c2cc1OC [1-(6,7-dimethoxyquinazolin-4-yl)-3-phenylurea]
